The subject of one series is MES-SA. Description: Growth inhibition assay (96 h). The series is classed as cell-based. The conditions noted are these: Homo sapiens, MES-SA (parental). The source says:
(§1) MTT (3-(4,5-dimethylthiazol-2-yl)-2,5-diphenyltetrazolium bromide) assay was also used for the leukemia cell lines. […] Cells were stained with SRB solution or MTT solution.

Series [1] deals with MDR cell lines with high levels of P-gp, MRP1, MRP2, or BCRP. The series is described as follows: Cytotoxicity assay using MDR cell lines. The series is classed as cell-based, human. The conditions noted are these: MRP1, MRP2, BCRP over-expressing cells.
Excerpt: as §1
Since ABC transporters are thought to be one of the major causes of MDR of anticancer drugs, the antitumoral efficacy of 68 was compared with other anticancer drugs in a cytotoxicity assay using MDR cell lines with high levels of P-gp, MRP1, MRP2, or BCRP (Table 1). […] In contrast, the cytotoxicity efficacy of 68 against cancer cells was unaltered by the MDR phenotypes.

Another series deals with PC-3 xenografts. The series is described as follows: In vivo antitumor efficacy, PC-3 xenograft. Particulars: for tumor growth inhibition: PC-3 xenograft, 2 days/week, 4 weeks.
In the next series the test system is DU-145. The series is described as follows: Growth inhibition assay (SRB, 96 h). The series is classed as cell-based. The conditions noted are these: Homo sapiens, DU-145, 96 h.
Excerpt: as §1

For a further series, the system named is PPC-1. The series is described as follows: Growth inhibition assay (SRB, 96 h). In kind it is cell-based. Particulars: Homo sapiens, PPC-1, 96 h.
Excerpt: as §1

Another series concerns LNCaP. The series is described as follows: Growth inhibition assay (SRB, 96 h). The series is classed as cell-based. The conditions noted are these: Homo sapiens.
Excerpt: as §1

In another series the test system is Tubulin proteins. Description: Tubulin polymerization in vitro (absorbance 340 nm). In kind it is biochemical. Particulars: 20 μM, 37° C., 30 minutes. As for the experimental part: Cell viability (LNCaP, PC-3 prostate, DU145, PPC-1, and TSU-Pr1 prostate cancer cell lines, HT-29 colon cancer cell line, and MCF-7 breast cancer cell line) was quantitated using the sulforhodamine B (SRB) assay after 96 h coincubation with different concentrations of compound in 96-well plates. Cell viability of leukemia cells (K562 and doxorubicin-resistant K562/Dox) was quantitated by MTT assay after 96 h coincubation with different concentrations of compound in 96-well plates. Drug-induced apoptosis was determined by anti-histone ELISA assay and DNA laddering. Cell cycle progression was assessed by propidium iodide staining and fluorescence-activated cell sorting (FACS) analysis. In vitro tubulin polymerization assay was determined by CytoDYNAMIX ScreenTM3 (CDS-03) kits according to the manufacturer's instructions. […]
Tubulin proteins (greater than 99% purity) were suspended (300 μg per sample) with 100 μl G-PEM buffer composed of 80 mM PIPES (piperazine-N,N′-bis(2-ethanesulfonic acid)), 2 mM MgCl2, 0.5 mM egtazic acid and 1.0 mM guanosine triphosphate (GTP), pH 6.9, plus 5% glycerol in the absence or presence of the compound 13 at 4° C. The sample mixture was transferred to the prewarmed 96-well plate and absorbance was detected each minute for 30 minutes at 340 nm at 37° C.

Another series has as its system MCF-7. The series is described as follows: Cell viability SRB assay, 96 h. The series is classed as cell-based. Particulars: Homo sapiens, MCF7; MCF-7, 96 h. Put shortly:
(§2)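 Following seeding (800-5,000 cells/well) and addition of compound up to 100 μM, plates sat 96 hour in humidified 5% carbon dioxide at 37° C before SRB staining.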

Another series has as its system HT-29. Description: Cell viability SRB assay, 96 h. In kind it is cell-based. Particulars: Homo sapiens, HT-29, 96 h. Put shortly: as §2
A general note: The SRB assay estimates cell density from bound dye.

Series [2] is described as follows: Plasma pharmacokinetics in mice. The series is classed as in vivo. The conditions noted are these: for bioavailability: read-out: absolute bioavailability. As for the experimental part: A single dose (10 mg/kg) and various routes of administration (intravenous, oral, and subcutaneous) were used in order to approximate its in vivo disposition and interpret the results of subchronic toxicity studies and forthcoming in vivo xenograft studies. Diindole 13 was administered to groups (n=60) of mice for each route of administration. Mice (n=5 per time point) were sacrificed at up to twelve different time points (pre-dose and up to 24 h post-dose), and plasma samples were stored at −80° C. until HPLC analysis. An HPLC/UV analytical method was developed and validated to determine diindole 13 concentrations in plasma, with a linear range of 0.02 to 20 μg/mL and intra- and inter-day coefficients of variation at all concentrations less than 6%.

Another series concerns LNCaP and PC-3 cells. The series is described as follows: Anti-histone ELISA for apoptosis. In kind it is cell-based, human. The conditions noted are these: 100 nM; LNCaP 24 h, PC-3 48 h. On the procedure: Cell viability (LNCaP, PC-3 prostate, DU145, PPC-1, and TSU-Pr1 prostate cancer cell lines, HT-29 colon cancer cell line, and MCF-7 breast cancer cell line) was quantitated using the sulforhodamine B (SRB) assay after 96 h coincubation with different concentrations of compound in 96-well plates. Cell viability of leukemia cells (K562 and doxorubicin-resistant K562/Dox) was quantitated by MTT assay after 96 h coincubation with different concentrations of compound in 96-well plates. Drug-induced apoptosis was determined by anti-histone ELISA assay and DNA laddering. Cell cycle progression was assessed by propidium iodide staining and fluorescence-activated cell sorting (FACS) analysis. In vitro tubulin polymerization assay was determined by CytoDYNAMIX ScreenTM3 (CDS-03) kits according to the manufacturer's instructions. Anti-apoptosis protein (Bcl-2 and Bcl-xl) and pro-apoptosis protein (Bax) were examined in LNCaP and PC-3 after 24 h incubation with different concentrations of compound 13 by Western blot assay. In vivo PC-3 xenograft studies were conducted by i.v. dosing of 50 mg/kg, 100 mg/kg and 150 mg/kg for 2 weeks.
100 nM of compound 13 was incubated with LNCaP for 24 h and PC-3 for 48 h. […] The results are expressed as enrichment factor (Enrichment factor=OD of treated cells/OD from control cells). […]

Where [3] appears, read: mouse, plasma, iv, 10 mg/kg, I.V.
Where [4] appears, read: mouse, plasma, po, 10 mg/kg, P.O.
The mark [5] stands for this setting: mouse, plasma, sc, 10 mg/kg, S.C.

Each structure is given as a SMILES string. Where two headings read alike, the source gives them in different places.

Usually IC50 stands for the concentration that gives 50% inhibition. In the case of `COc1cc(C(=O)c2cccc(-c3cc4ccccc4[nH]3)c2)cc(OC)c1OC` [Compound 68, [3-(1H-Indol-2-yl)-phenyl]-(3,4,5-trimethoxy-phenyl)-methanone], the IC50 with MES-SA was 31.5 ± 2.9 nM; in the series with DU-145, 22.8 ± 4.1 nM; in the series with PPC-1, 18.7 ± 1.5 nM; in the series on LNCaP, 30.9 ± 3.5 nM. Besides, the “cytotoxicity efficacy against cancer cells with MDR phenotypes” value in series [1] was “unaltered”. The tolerability result in the series with PC-3 xenografts (PC-3 xenograft mice, 5 and 10 mg/kg twice weekly) was “well tolerated”. Moreover, the results for the tumor growth inhibition in the series on PC-3 xenografts (5 mg/kg i.p.) and in the series with PC-3 xenografts (10 mg/kg i.p.) were 36% and 68%, respectively.

As a reminder, the bioavailability is dose-corrected exposure relative to a reference, in per cent. As usually defined, the AUC is concentration integrated over time. The term Cmax denotes the maximum level reached in the sampled fluid or tissue. A word on the Tmax: it is the time from dosing to the highest level. What is called clearance is a measure of how efficiently the substance is removed, as volume per time. A high value points to a high capacity for elimination. Broadly, the half-life is how long it takes for the measured level to halve. Read a low half-life as rapid decline. On to `O=C(c1cccc(-c2cc3ccccc3[nH]2)c1)c1cc2ccccc2[nH]1` [Compound 13, (1H-indol-2-yl)-[3-(1H-indol-2-yl)phenyl]methanone], for which the “effect on tubulin polymerization” value in the series on Tubulin proteins is recorded as “completely block”. Half-maximal inhibition with MCF-7 (IC50) required 162 nM. The IC50 in the series on HT-29 stood at 62 nM. In [2], the “metabolism (LC/MS/MS analysis of metabolites)” value was “extensive oxidative metabolism with subsequent sulfation” and the “volume of distribution relative to total body water (0.6 L/kg)” value is listed as “about 10 fold”. In series [2] (10 mg/kg, I.V.), this molecule returned an F of 1.00. In addition, in [2] (10 mg/kg, P.O.), the CL came out at 238 mL/min/kg and the F is listed as 0.20. In series [2] (10 mg/kg, S.C.), this molecule came in with a CL of 95 mL/min/kg and an F of 0.73. For the same molecule, in [2] (after intravenous administration), the “drug excreted unchanged in urine and feces” value is recorded as “less than 5%”. The hepatic extraction entry in [2] (from clearance and hepatic blood flow […]) was “exceeding 0.75”. Besides, the bioavailability in [2] (mouse, plasma, 10 mg/kg, oral (P.O.)) was 29%. Moreover, in series [2] (setting [3]), the area under the curve (AUC) amounted to 2410 ng·h/mL, the Cmax turned out to be 2860 ng/mL, the Tmax is 0.08 h and the clearance was about 66.7 mL/min/kg. Besides, the half-life in series [2] (setting [3]) was under 3 h. For the same molecule, the Vd in series [2] (mouse, plasma, iv, 10 mg/kg, I.V., read-out: Vss) came to 6.35 L/kg. Also, in [2] (setting [4]), the AUC turned out to be 690 ng·h/mL, the concentration peaked (Cmax) at 120 ng/mL, the Tmax is about 3 h and the half-life is 2.97 h. In addition, in [2] (setting [5]), the AUC was found to be 1770 ng·h/mL, the Cmax is 310 ng/mL, the Tmax is about 3 h and the half-life is 4.52 h. Besides, in series [2] (mouse, plasma, sc, 10 mg/kg, subcutaneous (S.C.)), the bioavailability was 73%. Also, the “apoptosis by anti-histone ELISA” value in the series on LNCaP and PC-3 cells was “detected apoptosis”.
